Experimental data from paper PMC10483468, “Biomimetic Dispersive Solid-Phase Microextraction: A Novel Concept for High-Throughput Estimation of Human Oral Absorption of Organic Compounds” (Analytical Chemistry, 2023).
Several values for one entry are separate records, joined by “and”; a condition that tells them apart may be missing. Identical values can stand only once.

Tests used:
[1] = test system: human jejunum; details: value = Peff x 10^4; cited from earlier work
[2] = Dispersive biomimetic solid-phase extraction (d-BMSPE) with PC-modified POP material; format: in vitro ADME; details: 30 min; for d-BMSPE extraction efficiency: 3.5 mg/L CEC in 5 mL PBS pH 7.4, ca. 40 mg PC-modified POP, 15 rpm, 37 °C; for RMBE·10^4 (relative mol bioextraction): value = RMBE x 10^4, mol analyte extracted per mol PC attached, PBS pH 7.4, 37 °C
Procedure: The experimental procedure starts by spiking 5 mL of PBS at pH 7.4 mimicking pH conditions from the small intestine with 3.5 mg L^–1 of the selected CEC and mixing with ca. 40 mg of PC-modified POP material. The material is dispersed gently in the solution at 15 rpm for 30 min at physiological temperature (37 °C) using a lab rotator, followed by separation of the biomimetic material by centrifugation. After separation, the supernatant of the biomimetic extractions is analyzed by HPLC. The bioextractable fraction of every CEC is determined by subtraction from the original spike concentration.
Following the fabrication of the biomimetic polymer, several considerations should be set before carrying out the d-BMSPE. First, the amount of PC on the modified polymer (GMA@HMD@GA@HMD@PCs) to simulate the absorption area of the jejunum needs to be evaluated.
The estimated liquid volume under fasted conditions of the jejunum is ca. 20 mL.[45] However, in this work, solutions of 5 mL were selected in order to reduce the amount of biomimetic material used in every extraction protocol. Therefore, only 1/4 of the total PC amount calculated above (ca. 9 μmol) should be used to maintain the PC to jejunum liquid ratio. A crucial experimental parameter in our work is the amount of PC-laden biopolymer necessary to simulate the absorption area of the jejunum.
With respect to the remainder of experimental parameters, a gentle agitation was performed at 15 rpm to just enable a good dispersion of the polymer in the test solution. The extraction time was set to 30 min according to the average intestinal transit time and the length of the jejunum over the total length of the small intestine.[46] Finally, the extraction temperature was set to 37 °C to simulate physiological conditions.
In addition, a new bioparameter, “RMBE” that stands for "Relative Mol BioExtraction", is herein proposed for the first time. RMBE is defined as the extraction efficiency expressed as mol of analyte extracted per mol of PC attached to the biomimetic material under physiologically simulated conditions (e.g., extraction using PBS buffer at 37 °C, or gastrointestinal fluid surrogates, or actual human fluids, among others).

[3] = Dispersive extraction with the free polymer (GMA monolith); format: physicochemical; details: free polymer without PC
[4] = Dispersive extraction with the polymer prior to PC attachment (GMA@HMD@GA@HMD); format: physicochemical

SMILES	experimental Peff·10^4 [1]	d-BMSPE extraction efficiency [2]	RMBE·10^4 (relative mol bioextraction) [2] [mol CEC/mol PC]	extraction efficiency, GMA monolith [3] [%]	extraction efficiency, GMA@HMD@GA@HMD [4] [%]
CC1=C(C(=O)O)N2C(=O)[C@@H](NC(=O)[C@H](N)c3ccccc3)[C@H]2SC1 [CEX, cephalexin]	1.6[6] cm/ s				
CC(=O)Nc1ccc(O)cc1 [PCT, paracetamol]	4.0[6] cm/ s	15.3 ± 0.8%	60.3 ± 1.5		
CN/C(=N/CCSCc1nc[nH]c1C)NC#N [CTM, cimetidine]	0.8[51] cm/ s	4.6 ± 2.1%	9.6 ± 1.7		
Cc1cnc(C(=O)NCCc2ccc(S(=O)(=O)NC(=O)NC3CCCCC3)cc2)cn1 [GLP, glipizide]	0.9[38] cm/ s				
O=C(O)Cc1ccccc1Nc1c(Cl)cccc1Cl [DCF, diclofenac]	1.6[40] cm/ s	10.6 ± 1.1%	22.6 ± 0.8	~100	~40
CN(C)C(=N)N=C(N)N [MET, metformin]	0.1[52] cm/ s	0.9% and 0.9 ± 0.1%	3.6 ± 0.7		
NS(=O)(=O)c1cc(C(=O)O)c(NCc2ccco2)cc1Cl [FUR, furosemide]	0.6[49] cm/ s	26.3 ± 1.1%	49.8 ± 0.9		
